What was measured:
[1] = tested on: Epstein-Barr virus early antigen (EBV-EA) of Raji cells induced by tumor promoter (TPA); assay: Inhibition of EBV-EA activation induced by TPA in Raji cells; type: cell-based; conditions: TPA 32 pmol, Raji cells, 48 h
Procedure: (§1) The inhibition of EBV-EA activation was assayed using Raji cells (virus non-producer type). The indicator cells (Raji, 1×10^6/ml) were incubated at 37° C. for 48 h in 1 ml of medium containing n-butyric acid (4 mmol), TPA(12-O-tetradecanoylphorbol 13-acetate)(32 pmol=20 ng in 2 μl DMSO) as inducer and various amounts of test compounds in 5 μl DMSO. Smears were made from the cell suspension, and the activated cells, which were stained by EBV-EA positive serum from nasopharygeal carcinoma patients were detected by an indirect immunofluorescence technique. For each compound, assays were performed in triplicate. The average EBV-EA induction of the test compounds was expressed as a relative ratio to the control experiment (100%), which was carried out only with n-butyric acid plus TPA. The viability of treated Raji cells was assayed by the Trypan Blue staining method.

Raji cells = assay: Viability of treated Raji cells (Trypan Blue staining); type: cell-based
Procedure: as §1

[2] = tested on: papillomas (mouse skin carcinogenesis induced by DMBA/TPA); assay: Two-stage mouse skin carcinogenesis model induced by DMBA/TPA; type: in vivo, mouse (female ICR); conditions: topical 85 nm 1 hour before TPA, ICR mice
Procedure: In the two-stage mouse skin carcinogenesis model induced by DMBA/TPA, the animals (specific pathogen-free female ICR, 6 weeks old) were divided into 5 groups, 15 mice each. The back of each mouse was shaved with surgical clippers, and the mice were topically treated with DMBA (100 μg, 390 nmol) in acetone (0.1 ml) as an initiation treatment. For the positive control group, 1 week after initiation with DMBA, mice were promoted by the application with TPA (1 μg, 1.7 nmol) in acetone (0.1 ml) twice a week. The other four groups received a topical application of each of the sarcophine semi-synthetic derivatives (85 nm) 1 hour before application of the tumor promoter. The incidence of papillomas was observed weekly for 20 weeks. The percentage of mice bearing papillomas and the average number of papillomas per mouse were recorded.

[3] = x 1000 mol ratio/TPA (32 nmol/mL)

CC1=CC=C([C@@](C)(O)CO)C[C@H](O)C(C)=CCCC2(C)OC2CC1 (stereo partly drawn) [Compound 12, 7,8-Epoxy-1,3,11-cembratriene-13S(β),15R(α),16-triol]
EBV-EA induction, percentage relative to the positive control value (100%) ([1]; x 10 mol ratio/TPA): 93.8% | EBV-EA induction, percentage relative to the positive control value (100%) ([1]; x 100 mol ratio/TPA): 74.6% | EBV-EA induction, percentage relative to the positive control value (100%) ([1]; x 500 mol ratio/TPA): 55.8% | EBV-EA induction, percentage relative to the positive control value (100%) [1, 3]: 5.9% | viability percentage of Raji cells (indicator cells) (Raji cells; x 10 mol ratio/TPA): > 80% | viability percentage of Raji cells (indicator cells) (Raji cells; x 100 mol ratio/TPA): > 80% | viability percentage of Raji cells (indicator cells) (Raji cells; x 500 mol ratio/TPA): > 80% | viability percentage of Raji cells (indicator cells) (Raji cells; [3]): 60% | Papilloma Bearer (%) ([2]; week 1 of promotion): 0.0% | Papillomas/mouse ([2]; week 1 of promotion): 0.0 | Papilloma Bearer (%) ([2]; week 2 of promotion): 0.0% | Papillomas/mouse ([2]; week 2 of promotion): 0.0 | Papilloma Bearer (%) ([2]; week 3 of promotion): 0.0% | Papillomas/mouse ([2]; week 3 of promotion): 0.0 | Papilloma Bearer (%) ([2]; week 4 of promotion): 0.0% | Papillomas/mouse ([2]; week 4 of promotion): 0.0 | Papilloma Bearer (%) ([2]; week 5 of promotion): 0.0% | Papillomas/mouse ([2]; week 5 of promotion): 0.0 | Papilloma Bearer (%) ([2]; week 6 of promotion): 0.0% | Papillomas/mouse ([2]; week 6 of promotion): 0.0 | Papilloma Bearer (%) ([2]; week 7 of promotion): 0.0% | Papillomas/mouse ([2]; week 7 of promotion): 0.0 | Papilloma Bearer (%) ([2]; week 8 of promotion): 13.3% | Papillomas/mouse ([2]; week 8 of promotion): 0.2 | Papilloma Bearer (%) ([2]; week 9 of promotion): 20.0% | Papillomas/mouse ([2]; week 9 of promotion): 0.5 | Papilloma Bearer (%) ([2]; week 10 of promotion): 26.6% | Papillomas/mouse ([2]; week 10 of promotion): 1.1 | Papilloma Bearer (%) ([2]; week 11 of promotion): 33.3% | Papillomas/mouse ([2]; week 11 of promotion): 1.5 | Papilloma Bearer (%) ([2]; week 12 of promotion): 33.3% | Papillomas/mouse ([2]; week 12 of promotion): 2.0 | Papilloma Bearer (%) ([2]; week 13 of promotion): 40.0% | Papillomas/mouse ([2]; week 13 of promotion): 2.2 | Papilloma Bearer (%) ([2]; week 14 of promotion): 46.6% | Papillomas/mouse ([2]; week 14 of promotion): 2.7 | Papilloma Bearer (%) ([2]; week 15 of promotion): 53.3% | Papillomas/mouse ([2]; week 15 of promotion): 3.1 | Papilloma Bearer (%) ([2]; week 16 of promotion): 60.0% | Papillomas/mouse ([2]; week 16 of promotion): 3.7 | Papilloma Bearer (%) ([2]; week 17 of promotion): 66.6% | Papillomas/mouse ([2]; week 17 of promotion): 4.0 | Papilloma Bearer (%) ([2]; week 18 of promotion): 73.3% | Papillomas/mouse ([2]; week 18 of promotion): 4.1 | Papilloma Bearer (%) ([2]; week 19 of promotion): 73.3% | Papillomas/mouse ([2]; week 19 of promotion): 4.4 | Papilloma Bearer (%) ([2]; week 20 of promotion): 80.0% | Papillomas/mouse ([2]; week 20 of promotion): 4.6
